Patent US5183821A, “Method for treating leukemias using N-(2-dimethylaminoethyl)-3-amino-1,8-naphthalimide for treating leukemias and solid tumors” (priority 1991, dated 1993)
“And” between values parts separate entries of the source, which are not always exact repeats. Equal values may be shown once. “Also recorded” adds a separate entry of the source.

What was measured:
L-1210 Lymphoid Leukemia [1] = assay: NCI screen, L-1210 Lymphoid Leukemia, subcutaneous (summary); assay type: in vivo, Mouse
Excerpt: The activity of the compound has been evaluated by experiments carried out under the auspices of the Division of Cancer Treatment, National Cancer Institute, employing techniques considered to be reliable indicators of chemotherapeutic utility in the treatment of forms of cancer in human patients. The details of the methodology employed in the reported experiments may be determined with reference to established NCI screening methods. In the experiments conducted by the NCI, evaluation of activity is made on the basis of appropriate parameters, such as median survival time (MST) or change in average tumor diameter (CATD)in ocular micrometer units (OMU).

[2] = tested on: P388 Lymphocytic leukemia; assay: NCI screen, P388 Lymphocytic leukemia, intraperitoneal (summary); assay type: in vivo, Mouse; details: for maximum increased life span: days 2-9 as printed; for Antitumor activity in words: P388
Excerpt: (§1) The activity of the compound has been evaluated by experiments carried out under the auspices of the Division of Cancer Treatment, National Cancer Institute, employing techniques considered to be reliable indicators of chemotherapeutic utility in the treatment of forms of cancer in human patients. The details of the methodology employed in the reported experiments may be determined with reference to established NCI screening methods.
(§2) In the experiments conducted by the NCI, evaluation of activity is made on the basis of appropriate parameters, such as median survival time (MST) or change in average tumor diameter (CATD)in ocular micrometer units (OMU).
The compound was found initially to be active in the P388 leukemia pre-screen, with T/C values (ratio of Test (T) evaluation to control (C) evaluation expressed as a percentage) of 177 and 176. Both values exceed the minimum T/C values for interest by the Decision Network Committe.

[3] = Single dose (X1) mouse range-finding and lethality study; assay type: in vivo, CD2 F1 mice; details: mouse, in vivo, iv
Description: (§3) A preclinical toxicology study of benzisoquinolinedione (NSC-308847) was done at Springborn Institute for Bioresearch, Inc. using CD2 F1 mice, Fischer 344 rats and beagle dogs. Animals were injected intravenously on a single dose (X1) or five daily dose (X5) regimen. Bulk drug was titrated with 0.5N HCl to form a salt solution of benzisoquinolinedione at a pH of 5.0-6.5. Sterile 0.9% saline was used for diluting the dosing solutions and was used for the vehicle control animals.
(§4) All mortality and toxic signs occurred on day 1 in both the X1 range-finding and lethality studies.
(§5) Defined Doses for the Single Dose Mouse Lethality

CD2 F1 mice = assay: as above; assay type: in vivo
Description: as §3, §4, §5

beagle dogs [4] = details: dog, in vivo
Excerpt: To determine the source of the color, the following analyses were done: HPLC and TLC (for drug); routine urinalyses, orthotolidine reagent strip and sulfosalicylic acid/ammonium sulfate precipitation tests (for occult blood).

Colon 38 = assay: Experiment 15: Colon 38 s.c., saline with Tween-80, female; assay type: in vivo, Mouse B6 D2 F1 (BDF1)
Excerpt: Host: Mouse B6 D2 F1 (BDF1)
Inoculum Site: Subcutaneous
Vehicle: Saline with Tween-80
Treatment schedule (relative to tumor inoculation day): Days 2 and 9
Day of evaluation (relative to tumor inoculation day): 20
Parameter: Median tumor weight (MTW) estimated from tumor diameter
NCI minimal activity criteria: Percent T/C≤42
Percent T/C: Ratio of test (T) evaluation to control (C) evaluation expressed as a percentage

[5] = tested on: MX-1 mammary tumor xenograft; assay: NCI screen, MX-1 breast (mammary) xenograft, renal capsule (summary); assay type: in vivo, human tumor xenograft in athymic mice; details: for Antitumor activity in words: MX-1 mammary xenograft
Excerpt: as §1, §2

beagle dogs [6] = assay: Single dose dog toxicity study; assay type: in vivo; details: for Mortality / lethality: single; for toxicity summary, dogs: single dose i.v.
Description: Preclinical toxicity studies of BIDA were completed in CD2F1 Mice, Fischer 344 rats and beagle dogs (4). The animals were injected IV with a single bolus or daily for five days.
as §3
The following summarizes the major organ toxicities resulting from IV administration of benzisoquinolinedione to dogs.

LX-1 lung xenograft = assay: NCI screen, LX-1 lung xenograft, renal capsule (summary); assay type: in vivo, human tumor xenograft in athymic mice; details: for Antitumor activity in words: LX-1 lung xenograft
Excerpt: as §1, §2

L-1210 Lymphoid Leukemia [7] = assay: NCI screen, L-1210 Lymphoid Leukemia, intraperitoneal (summary); assay type: in vivo, Mouse; details: for dosage range over which activity was observed: i.p. L1210, ILS≥25%; for Table II evaluation: full wrapped cell: Activity substantially greater than the minimal
Excerpt: as §1, §2

[8] = 16.00 mg/kg i.p., control MTW outside normal limits
[9] = 32.00 mg/kg i.p., control MTW outside normal limits
[10] = 64.00 mg/kg i.p., control MTW outside normal limits
[11] = change in average tumor diameter, 4 tests, full wrapped cell: Activity not confirmed
[12] = 18.4 mg/kg, three dogs, days 2, 3 and/or 4

CN(C)CCN1C(=O)c2cccc3cc(N)cc(c23)C1=O [Example 9, 1H-Benz[de]isoquinoline-1,3(2H)-dione, 5-amino-2-[2-(dimethylamino)ethyl]]
Table II evaluation (L-1210 Lymphoid Leukemia [1]; median survival time, 16 tests, full wrapped cell: Activity substantially greater than the minimal): Activity
Antitumor activity in words (L-1210 Lymphoid Leukemia [1]; s.c. implanted L1210): active
maximum increased life span ([2]; 8 mg/kg i.p.): 76%
maximum increased life span ([2]; 16 mg/kg i.p.): 77%
Antitumor activity in words ([2]; listed as BIDA): active
Antitumor activity in words ([2]; listed as the compound): at least a reproducible minimal activity
Table II evaluation ([2]; median survival time, 9 tests, full wrapped cell: Reproducible minimal activity): Reproducible minimal
T/C values in the P388 leukemia pre-screen ([2]; test/control as percentage, listed as the compound): 177% and 176%
LD50 ([3]; combined sexes): 69.1 mg/kg
LD50 ([3]; female): 71.4 mg/kg
LD50 ([3]; male): 67.1 mg/kg
body weight, mice (CD2 F1 mice; X1): Only slight weight loss
time of deaths, mice (CD2 F1 mice; X1): within a few minutes after dosing
toxic signs, mice (CD2 F1 mice; X1, listed as benzisoquinolinedione): labored breathing, struggling and exophthalmus; also recorded: loss of locomotor ability, decreased activity and rough hair coats; also recorded: All surviving animals were normal within a few hours
LD50 (CD2 F1 mice; combined sexes): 207.3 mg/m^2
Slope (lethality) (CD2 F1 mice; combined sexes): 23.1
LD10 (CD2 F1 mice; female): 62.2 mg/kg
LD50 (CD2 F1 mice; female): 214.2 mg/m^2
Slope (lethality) (CD2 F1 mice; female): 21.2
LD50 (CD2 F1 mice; male): 201.3 mg/m^2
Slope (lethality) (CD2 F1 mice; male): 26.0
blood in urine (beagle dogs [4]): the presence of blood was negligible
Median tumor weight (MTW) (Colon 38; [8]): 2261
Percent T/C (Colon 38; [8]): 108%
Median tumor weight (MTW) (Colon 38; [9]): 1440
Percent T/C (Colon 38; [9]): 69%
Median tumor weight (MTW) (Colon 38; [10]): 368
Percent T/C (Colon 38; [10]): 17%
Median tumor weight (MTW) (Colon 38; 128.00 mg/kg i.p.): Deaths before evaluation
Antitumor activity in words ([5]; listed as BIDA): No activity was seen
Antitumor activity in words ([5]; listed as the compound): not active
Table II evaluation [5, 11]: Activity not
gross or microscopic lesions (beagle dogs [6]; 0.92 mg/kg): No drug-related gross or microscopic lesions were found
Mortality / lethality (beagle dogs [6]; 0.92 mg/kg (1/10MELD10)): 0/4
SGPT (beagle dogs [6]; 0.92 mg/kg, days 2 and 4): 27-40 I.U./L
BUN (beagle dogs [6]; 0.92 mg/kg, one dog, day 4): 26 mg/dL
Creatinine (beagle dogs [6]; 0.92 mg/kg, one dog, day 4): 1.29 mg/dL
gross or microscopic lesions (beagle dogs [6]; 9.2 mg/kg): No drug-related gross or microscopic lesions were found
Mortality / lethality (beagle dogs [6]; 9.2 mg/kg (MELD10)): 0/4
Creatinine (beagle dogs [6]; 9.2 mg/kg, day 4): 1.31 mg/dL
BUN (beagle dogs [6]; 9.2 mg/kg, one dog, days 2 and 4): 22 to 23 mg/dL
SGPT (beagle dogs [6]; 9.2 mg/kg, three dogs, days 2 and/or 4): 32-43 I.U./L
Nervous system signs (beagle dogs [6]; 18.4 mg/kg): vocalizations, struggling against restraint, excessive salivation, hyperextension of all limbs and/or labored breathing
Mortality / lethality (beagle dogs [6]; 18.4 mg/kg (2XMELD10), listed as BIDA): Neither the single injection of 2×MELD10 or the daily×5 injection of the 3×MELD10 caused lethality
Mortality / lethality (beagle dogs [6]; 18.4 mg/kg (2XMELD10), listed as benzisoquinolinedione): no deaths and 0/4
BUN (beagle dogs [6]; 18.4 mg/kg, all dogs, day 2): 23 to 32 mg/dL
leukopenia (leukocyte count) (beagle dogs [6]; 18.4 mg/kg, days 3, 8 or 4): 3.8-5.4 ×10^3 /cmm
gross or microscopic lesions (beagle dogs [6]; 18.4 mg/kg, listed as benzisoquinolinedione): No gross or microscopic lesions were seen; also recorded: No drug-related gross or microscopic lesions were found
SGOT (beagle dogs [6]; [12]): 43-70 I.U./L
SGPT (beagle dogs [6]; [12]): 40-57 I.U./L
BUN (beagle dogs [6]; 18.4 mg/kg, two long-term dogs, days 22 and 29 or 28): 23 to 29 mg/dL
toxicity summary, dogs (beagle dogs [6]; listed as BIDA): Hematopoletic, renal and hepatic toxicity; also recorded: Signs indicating pain and/or neurotoxicity
toxicity summary, dogs (beagle dogs [6]; listed as benzisoquinolinedione): reversible toxicity to the hematopoietic system, kidney and liver; also recorded: Signs indicative of pain and/or neurotoxicity; also recorded: No drug-related gross or microscopic lesions
Antitumor activity in words (LX-1 lung xenograft; listed as BIDA): No activity was seen
Antitumor activity in words (LX-1 lung xenograft; listed as the compound): not active
Table II evaluation (LX-1 lung xenograft; [11]): Activity not
dosage range over which activity was observed (L-1210 Lymphoid Leukemia [7]; listed as BIDA): two-fold dosing range
dosage range over which activity was observed (L-1210 Lymphoid Leukemia [7]; listed as the compound): two-fold dosage range
mean optimal increased life span (ILS) (L-1210 Lymphoid Leukemia [7]; ip, 16 mg/kg): 96%
optimal increased life spans (ILS) (L-1210 Lymphoid Leukemia [7]; ip, 16 mg/kg): 75-117%
Table II evaluation (L-1210 Lymphoid Leukemia [7]; mean survival time, 12 tests): Activity
Table II evaluation (L-1210 Lymphoid Leukemia [7]; median survival time, 21 tests): Activity
activity by other routes (L-1210 Lymphoid Leukemia [7]; p.o. or I.V.): is retained when given p.o. or I.V.
ILS (L-1210 Lymphoid Leukemia [7]; solution in 0.1 N HCl diluted with saline): 117%
